For this experiment, the target named is EGFR T790M/L858R Ba/F3 cell line (Homo sapiens, UniProt P00533, T790M/L858R, cells depend on it). Description: Ba/F3 cell proliferation model. Type of experiment: cell-based, murine. The following applies: combined with cetuximab (% cetuximab, 1.0 μM drug concentration with 1.0 μg/mL cetuximab). The text has this: The selectivity between wild-type EGFR and EGFR containing one or more mutations as described herein can also be measured using cellular proliferation assays where cell proliferation is dependent on kinase activity. For example, murine Ba/F3 cells transfected with a suitable version of wild-type EGFR (such as VIII; containing a WT EGFR kinase domain), or Ba/F3 cells transfected with L858R/T790M, Del/T790M/L718Q, L858R/T790M/L718Q, L858R/T790M/C797S, Del/T790M/C797S, L858R/T790M/I941R, or Exon 19 deletion/T790M can be used.
EGFR T790M/L858R Ba/F3 cell line, sequence (P00533 whole entry T790M/L858R, the tested form may be a part): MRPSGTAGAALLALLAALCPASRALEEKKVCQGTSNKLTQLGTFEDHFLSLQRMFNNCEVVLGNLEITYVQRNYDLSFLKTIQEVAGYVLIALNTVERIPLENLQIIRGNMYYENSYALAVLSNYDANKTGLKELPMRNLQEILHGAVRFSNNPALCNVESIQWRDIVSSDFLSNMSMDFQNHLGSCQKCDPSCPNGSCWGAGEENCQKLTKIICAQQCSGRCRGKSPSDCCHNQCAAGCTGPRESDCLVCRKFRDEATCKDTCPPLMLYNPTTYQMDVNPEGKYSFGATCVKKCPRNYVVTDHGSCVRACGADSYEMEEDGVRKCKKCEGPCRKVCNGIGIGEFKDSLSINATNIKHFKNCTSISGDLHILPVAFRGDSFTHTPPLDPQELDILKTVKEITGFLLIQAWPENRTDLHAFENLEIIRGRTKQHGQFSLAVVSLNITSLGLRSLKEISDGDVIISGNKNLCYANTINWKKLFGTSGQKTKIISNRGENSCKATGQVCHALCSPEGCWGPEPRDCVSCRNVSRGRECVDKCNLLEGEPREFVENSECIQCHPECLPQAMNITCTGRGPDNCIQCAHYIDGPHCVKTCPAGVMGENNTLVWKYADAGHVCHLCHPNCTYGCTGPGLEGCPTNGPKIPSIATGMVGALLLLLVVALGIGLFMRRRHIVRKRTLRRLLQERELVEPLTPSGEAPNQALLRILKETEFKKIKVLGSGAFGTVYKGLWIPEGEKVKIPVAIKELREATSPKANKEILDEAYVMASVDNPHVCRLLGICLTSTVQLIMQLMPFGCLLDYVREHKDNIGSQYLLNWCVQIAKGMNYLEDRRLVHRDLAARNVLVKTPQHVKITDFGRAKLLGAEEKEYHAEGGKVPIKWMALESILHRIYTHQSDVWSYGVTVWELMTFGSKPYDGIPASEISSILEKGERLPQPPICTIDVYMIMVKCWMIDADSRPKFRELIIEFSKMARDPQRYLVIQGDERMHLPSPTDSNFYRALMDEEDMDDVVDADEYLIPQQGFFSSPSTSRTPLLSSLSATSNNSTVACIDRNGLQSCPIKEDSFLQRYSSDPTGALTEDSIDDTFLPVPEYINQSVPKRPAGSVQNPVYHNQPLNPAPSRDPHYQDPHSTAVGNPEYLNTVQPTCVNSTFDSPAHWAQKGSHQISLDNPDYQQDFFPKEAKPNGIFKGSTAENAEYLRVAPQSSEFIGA
Cell lines are plated in media. The compounds of the present disclosure are then serially diluted and transferred to the cells. Cell viability is measured via a luminescent readout. Data is analyzed by non-linear regression curve-fitting. […]
The EGFR mutant L858R, Del E746_A750, L858R/T790M, DelE746_A750/T790M, L858R/T790M/C797S and Del/T790M/C797S Ba/F3 cells have been previously described (Zhou, W., Ercan, D., Chen, L., Yun, C. H., Li, D., Capelletti, M., Cortot, A. B., Chirieac, L., Iacob, R. E., Padera, R., et al. “Novel mutant-selective EGFR kinase inhibitors against EGFR T790M,” Nature 462, (2009), 1070-1074). All cell lines were maintained in RPMI 1640 (Cellgro; Mediatech Inc., Herndon, Calif.) supplemented with 10% FBS 100 units/mL penicillin, 100 units/mL streptomycin, and 2 mM glutamine. L858R cells were maintained in ACL-4 media (Invitrogen, Carlsbad, Calif.) supplemented with 5% FBS, 100 units/mL penicillin, 100 units/mL streptomycin, and 2 mM glutamine. The EGFR I941R mutation was introduced via site directed mutagenesis using the Quick Change Site-Directed Mutagenesis kit (Stratagene; La Jolla, Calif.) according to the manufacturer's instructions. All constructs were confirmed by DNA sequencing. The constructs were shuttled into the retroviral vector JP 1540 using the BD Creator™ System (BD Biosciences). Ba/F3 cells were infected with retrovirus and according to standard protocols, as described previously (Zhou et al, Nature 2009). Stable clones were obtained by selection in puromycin (2 μg/ml).
Growth and inhibition of growth was assessed by MTS assay and was performed according to previously established methods (Zhou et al., Nature 2009). The MTS assay is a colorimetric method for determining the number of viable cells that is based on the bioreduction of MTS by cells to a formazan product that is soluble in cell culture medium and can be detected spectrophotometrically. Ba/F3 cells of different EGFR genotypes were exposed to treatment for 72 hours and the number of cells used per experiment determined empirically and has been previously established (Zhou et al., Nature 2009). All experimental points were set up in six wells and all experiments were repeated at least three times. […] The curves were fitted using a non-linear regression model with a sigmoidal dose response.
Inhibition data of an EGFR T790M/L858R Ba/F3 cell line.

For the molecule `CN(C)C1CCN(C(=O)c2csc(NC(=O)[C@@H](c3ccccc3)N3Cc4ccccc4C3=O)n2)CC1` [Compound I-23, (R)-N-(4-(4-(dimethylamino)piperidine-1-carbonyl)thiazol-2-yl)-2-(1-oxoisoindolin-2-yl)-2-phenylacetamide], the “Activity (% inhibition)” value is “A (a % inhibition of about 75%)”.

In the case of `O=C(Nc1nccs1)C(c1ccccn1)N1Cc2ccc(-c3ccc(N4CCNCC4)cc3)cc2C1=O` (stereo not shown) [Compound I-124, 2-(1-oxo-6-(4-(piperazin-1-yl)phenyl)isoindolin-2-yl)-2-(pyridin-2-yl)-N-(thiazol-2-yl)acetamide], the “Activity (% inhibition)” value is given as “D (a % inhibition of between about 0% to about 25%)”.

Take `O=C(NCC(O)CO)c1cc(Br)ccc1N[C@@H](C(=O)Nc1nccs1)c1ccccc1` (stereo partly drawn) [Compound I-111, 5-bromo-N-(2,3-dihydroxypropyl)-2-(((R)-2-oxo-1-phenyl-2-(thiazol-2-ylamino)ethyl)amino)benzamide]: the “Activity (% inhibition)” value is on record as “A (a % inhibition of about 75%)”. As for `CN1CCN(C(=O)c2csc(NC(=O)[C@@H](c3ccccc3)N3Cc4ccccc4C3=O)n2)CC1` [Compound I-25, (R)-N-(4-(4-methylpiperazine-1-carbonyl)thiazol-2-yl)-2-(1-oxoisoindolin-2-yl)-2-phenylacetamide], the “Activity (% inhibition)” value was “A (a % inhibition of about 75%)”.

For `O=C(NCCCN1CCOCC1)c1ccc(-c2ccc3c(c2)C(=O)N([C@@H](C(=O)Nc2nccs2)c2ccccc2)C3)cc1` [Compound I-84, (R)-N-(3-morpholinopropyl)-4-(3-oxo-2-(2-oxo-1-phenyl-2-(thiazol-2-ylamino)ethyl)isoindolin-5-yl)benzamide], the “Activity (% inhibition)” value is on record as “D (a % inhibition of between about 0% to about 25%)”.

Turning to `O=C(Nc1nncs1)[C@@H](c1ccccc1)N1Cc2ccccc2C1=O` [Compound I-41, (R)-2-(1-oxoisoindolin-2-yl)-2-phenyl-N-(1,3,4-thiadiazol-2-yl)acetamide], the “Activity (% inhibition)” value is listed as “A (a % inhibition of about 75%)”. With `O=C(Nc1nccs1)[C@@H](c1ccccc1)N1Cc2cc(-c3ccc4c(c3)OCCO4)ccc2C1=O` [Compound I-103, (R)-2-(5-(2,3-dihydrobenzo[b] [1,4]dioxin-6-yl)-1-oxoisoindolin-2-yl)-2-phenyl-N-(thiazol-2-yl)acetamide] the entry was “C (a % inhibition of between about 25% to about 50%)”. Consider `O=C(Nc1nccs1)[C@H](Cc1ccccc1)N1Cc2ccccc2C1=O` [Compound I-45, (S)-2-(1-oxoisoindolin-2-yl)-3-phenyl-N-(thiazol-2-yl) propanamide], for which the “Activity (% inhibition)” value was “A (a % inhibition of about 75%)”. With `O=C(Nc1ccccc1F)[C@@H](c1ccccc1)N1Cc2ccccc2C1=O` [Compound I-55, (R)-N-(2-fluorophenyl)-2-(1-oxoisoindolin-2-yl)-2-phenylacetamide] the entry was “B (a % inhibition of between about 50% to about 75%)”.

As to `O=C(Nc1cc(C2CC2)n[nH]1)[C@@H](c1ccccc1)N1Cc2ccccc2C1=O` [Compound I-26, (R)-N-(3-cyclopropyl-1H-pyrazol-5-yl)-2-(1-oxoisoindolin-2-yl)-2-phenylacetamide], the “Activity (% inhibition)” value is recorded as “A (a % inhibition of about 75%)”.

Turning to `O=C(Nc1ncccc1F)[C@@H](c1ccccc1)N1Cc2ccccc2C1=O` [Compound I-56, (R)-N-(3-fluoropyridin-2-yl)-2-(1-oxoisoindolin-2-yl)-2-phenylacetamide], the “Activity (% inhibition)” value is “B (a % inhibition of between about 50% to about 75%)”. For `O=C(Nc1nc(C(F)(F)F)cs1)[C@@H](c1ccccc1)N1Cc2ccccc2C1=O` [Compound I-6, (R)-2-(1-oxoisoindolin-2-yl)-2-phenyl-N-(4-(trifluoromethyl)thiazol-2-yl)acetamide] the value was “A (a % inhibition of about 75%)”; for `O=C(Nc1nccs1)[C@@H](c1ccccc1)N1Cc2ccc(-c3cn[nH]c3)cc2C1=O` [Compound I-64, (R)-2-(1-oxo-6-(1H-pyrazol-4-yl)isoindolin-2-yl)-2-phenyl-N-(thiazol-2-yl)acetamide], “B (a % inhibition of between about 50% to about 75%)”. For `O=C(Nc1nncs1)[C@@H](c1ccccc1)N1Cc2ccc(-c3ccc4[nH]ccc4c3)cc2C1=O` [Compound I-127, (R)-2-(6-(1H-indol-5-yl)-1-oxoisoindolin-2-yl)-2-phenyl-N-(1,3,4-thiadiazol-2-yl)acetamide], the “Activity (% inhibition)” value was “A (a % inhibition of about 75%)”.

Turning to `O=C(Nc1cnc(Br)cn1)[C@@H](c1ccccc1)N1Cc2ccccc2C1=O` [Compound I-27, (R)-N-(5-bromopyrazin-2-yl)-2-(1-oxoisoindolin-2-yl)-2-phenylacetamide], the “Activity (% inhibition)” value is reported as “A (a % inhibition of about 75%)”.

Regarding `O=C(Nc1nc(Br)cs1)[C@@H](c1ccccc1)N1Cc2ccccc2C1=O` [Compound I-36, (R)-N-(4-bromothiazol-2-yl)-2-(1-oxoisoindolin-2-yl)-2-phenylacetamide], the “Activity (% inhibition)” value was “A (a % inhibition of about 75%)”. As for `O=C(Nc1nccs1)[C@@H](c1cccc([N+](=O)[O-])c1)N1Cc2ccc(-c3ccc4[nH]ccc4c3)cc2C1=O` [Compound I-109, (R)-2-(6-(1H-indol-5-yl)-1-oxoisoindolin-2-yl)-2-(3-nitrophenyl)-N-(thiazol-2-yl)acetamide], the “Activity (% inhibition)” value was “B (a % inhibition of between about 50% to about 75%)”.

On to `CCOC(=O)c1csc(NC(=O)[C@@H](c2ccccc2)N2Cc3ccccc3C2=O)n1` [Compound I-4, ethyl (R)-2-(2-(1-oxoisoindolin-2-yl)-2-phenylacetamido) thiazole-4-carboxylate], for which the “Activity (% inhibition)” value was “A (a % inhibition of about 75%)”. With `COC(=O)c1ccc(-c2ccc3c(c2)C(=O)N([C@@H](C(=O)Nc2nccs2)c2ccccc2)C3)cc1` [Compound I-72, methyl (R)-4-(3-oxo-2-(2-oxo-1-phenyl-2-(thiazol-2-ylamino)ethyl)isoindolin-5-yl)benzoate] the entry was “B (a % inhibition of between about 50% to about 75%)”; with `O=C(Nc1nccs1)[C@@H](c1ccccc1)N1Cc2ccc(-c3ccc(F)cc3)cc2C1=O` [Compound I-77, (R)-2-(6-(4-fluorophenyl)-1-oxoisoindolin-2-yl)-2-phenyl-N-(thiazol-2-yl)acetamide], “B (a % inhibition of between about 50% to about 75%)”.

In the case of `N#Cc1ccc(-c2ccc3c(c2)C(=O)N([C@H](C(=O)Nc2nccs2)c2ccccc2)C3)cc1F` [Compound I-114, (S)-2-(6-(4-cyano-3-fluorophenyl)-1-oxoisoindolin-2-yl)-2-phenyl-N-(thiazol-2-yl)acetamide], the “Activity (% inhibition)” value is listed as “B (a % inhibition of between about 50% to about 75%)”. Regarding `O=C(Nc1ncc[nH]1)[C@@H](c1ccccc1)N1Cc2ccc(-c3ccc4[nH]ccc4c3)cc2C1=O` [Compound I-133, (R)-2-(6-(1H-indol-5-yl)-1-oxoisoindolin-2-yl)-N-(1H-imidazol-2-yl)-2-phenylacetamide], the “Activity (% inhibition)” value is reported as “D (a % inhibition of between about 0% to about 25%)”. In the case of `Cc1cccc(C)c1NC(=O)[C@@H](c1ccccc1)N1Cc2ccccc2C1=O` [Compound I-54, (R)-N-(2,6-dimethylphenyl)-2-(1-oxoisoindolin-2-yl)-2-phenylacetamide], the “Activity (% inhibition)” value is “A (a % inhibition of about 75%)”. For `O=C(Nc1nccs1)[C@@H](c1ccccc1)N1Cc2cc(-c3ccccc3)ccc2C1=O` [Compound I-105, (R)-2-(1-oxo-5-phenylisoindolin-2-yl)-2-phenyl-N-(thiazol-2-yl)acetamide] the value was “B (a % inhibition of between about 50% to about 75%)”; for `Nc1cccc([C@@H](C(=O)Nc2nccs2)N2Cc3ccccc3C2=O)c1` [Compound I-13, (S)-2-(3-aminophenyl)-2-(1-oxoisoindolin-2-yl)-N-(thiazol-2-yl)acetamide], “A (a % inhibition of about 75%)”.

These data come from patent US10385019B2, “Inhibitors of EGFR and methods of use thereof” (Dana-Farber Cancer Institute, Inc., priority 2015, dated 2019).
